# From patent US20230255970A1, “COMPOSITIONS AND METHODS FOR TREATING PROLIFERATIVE DISEASES” (The Broad Institute, Inc., priority 2020, published 2023)
# Entries after “also recorded” stand apart in the source; their conditions may differ.
# Legend:
# YAP1 [1] = test: Western blot of phospho-YAP1 (S127) in H9 cells; assay type: cell-based, human; conditions: 24 hrs
# Protocol: H9 hPSCs (WiCell) were maintained on vitronectin (Thermo Fisher)-coated plates in Essential 8 (E8) medium. The cells were routinely passaged using 0.5 mM EDTA and treated with 5 μM Y-27632 dihydrochloride (Tocris) on the first day. For testing the effects of the small molecules, H9 hPSCs were seeded at 50K cells/cm^2 on vitronectin-coated plates in E8 medium supplemented with 5 μM Y-27632 dihydrochloride (day 0). On day 1, the medium was switched to E8 medium. On day 2, the medium was switched to E8 medium supplemented with the small molecules. Following overnight incubation, the cells were collected for subsequent analysis on day 3.
# YAP1-related Western blotting: The cells were lysed in RIPA buffer (Pierce) supplemented with Halt Protease inhibitor cocktail and Halt Phosphatase inhibitor cocktail. Cells were lysed in hot Tris-SDS buffer (pH 7.6) and boiled for 5 minutes at 95° C. The protein concentration of each sample was quantified using the Pierce BCA protein assay (Thermo Fisher). The proteins were resolved by SDS-PAGE and transferred to PVDF membranes using the Trans-Blot Turbo Transfer system (Bio-Rad). The membranes were blocked in 5% non-fat milk in TBS-T for up to 1 hour at room temperature and incubated with primary antibodies in 5% bovine serum albumin in TBS-T overnight at 4° C. […]
# mouse sarcoma cells = test: qRT-PCR of Yap1/NF-κB target genes in mouse sarcoma cells; assay type: cell-based; conditions: normalized to Hprt, Sdha, timecourse
# Protocol: Mouse sarcoma cells were treated with 1 μM of compound for 48 h. RNA was isolated and qRT-PCR was performed for known NF-κB targets and proliferation-associated targets (i.e., Ki67, FOXM1). Target genes used to assess NF-κB inhibition specific to the cancer contexts are evaluated. For example, to test the efficacy of these compounds against NF-κB transcriptional activity in […] cells, expression of PHLDA1, IER2, and LITAF is determined. Compounds that alter expression of NF-κB target genes are assessed in proliferation studies using UPS, head and neck, prostate, and breast cancer cell lines previously associated with NF-κB dependence. IC50 studies and Western blot analyses are performed to evaluate total or phosphorylated p65 levels. Small molecules are then assessed to determine their mechanism of action. […] FIGS. 4-6 provide timecourse graphs showing the relative expression normalized to housekeeping genes.
# Yap1 [2] = test: Yap1 protein levels in KP230 cells (western blot, immunofluorescence); assay type: cell-based, mouse; conditions: 72 hours
# Description: (§1) YAP1 cell culture and treatments: Eisinger lab: Murine KP230 cells, a Yap1-dependent cancer cell line, were derived from a tumor from the KP mouse model (Kras^G12/D; Trp53^f/fl), as described in Eisinger-Mathason, T. S. K. et al., Proc. Natl. Acad. Sci. U.S.A 112 (2015): E3402-11, which is hereby incorporated by reference in its entirety. STS-109 UPS cells were derived from a human UPS tumor and validated by Rebecca Gladdy, MD (Sinai Health System, Toronto, Ontario, Canada). TC32 cells were a gift from Patrick Grohar, MD, PhD (Children's Hospital of Philadelphia). HT-1080, HCT-116, and HEK293T cells were purchased from ATCC. KP230, HT-1080, and HEK-293T cells were grown in DMEM with 10% FBS, 1% L-glutamine, and 1% penicillin/streptomycin (P/S). STS-109 cells were cultured in DMEM with 20% FBS, 1% L-glutamine, and 1% P/S. TC32 cells were grown in RPMI with 10% FBS, 1% L-glutamine, and 1% P/S. HCT-116 cells were cultured in McCoy's 5A medium with 10% FBS and 1% P/S. All cells were confirmed to be negative for mycoplasma contamination and were maintained in an incubator at 37C with 5% CO2. […]
# YAP1-related Western blotting: The cells were lysed in RIPA buffer (Pierce) supplemented with Halt Protease inhibitor cocktail and Halt Phosphatase inhibitor cocktail. […] The protein concentration of each sample was quantified using the Pierce BCA protein assay (Thermo Fisher). […]
# STS-109 human UPS cells = test: Proliferation assay, STS-109 cells; assay type: cell-based; conditions: 10 μM daily
# Description: as §1
# NB4A treatment: Cells were treated with 10 μM of each inhibitor or an equivalent volume of DMSO every 24 hours for 3-8 days, and counted with a hemocytometer with trypan blue exclusion daily (KP230, HT-1080, TC32, HCT-116), or every 2 days (STS-109).
structure (smiles),measurement,setting,value
"c1ccc(CNc2ncnc3ccccc23)cc1 [BRD-K43796186, N-benzylquinazolin-4-amine]",YAP1 S127 phosphorylation,YAP1 [1],decreased YAP1 S127 phosphorylation
same,Ccl2 expression,mouse sarcoma cells,significantly decreased
same,Foxm1 expression,mouse sarcoma cells,reduced
same,Yap1 gene expression,mouse sarcoma cells; listed as NB4A,not affected; also recorded: not effected
same,Yap1 protein levels,Yap1 [2],reduced
same,proliferation,STS-109 human UPS cells,did not affect the proliferation
